Results taken from ChEMBL document CHEMBL3621161, “Conformationally restrained carbamoylcholine homologues. Synthesis, pharmacology at neuronal nicotinic acetylcholine receptors and biostructural considerations” (Eur J Med Chem, 2015).
Activity calls are given as the source filed them. The rule behind the calls is not given here.

Key:
[1] = target: Neuronal acetylcholine receptor; alpha4/beta2 (Rattus norvegicus, UniProt P09483+P12390); test: Displacement of [3H]epibatidine from rat neuronal acetylcholine receptor subunit alpha4beta2 expressed in HEK293 cell membranes incubated for 4 hrs by scintillation counting method
Neuronal acetylcholine receptor; alpha4/beta2, sequence (P09483 whole entry): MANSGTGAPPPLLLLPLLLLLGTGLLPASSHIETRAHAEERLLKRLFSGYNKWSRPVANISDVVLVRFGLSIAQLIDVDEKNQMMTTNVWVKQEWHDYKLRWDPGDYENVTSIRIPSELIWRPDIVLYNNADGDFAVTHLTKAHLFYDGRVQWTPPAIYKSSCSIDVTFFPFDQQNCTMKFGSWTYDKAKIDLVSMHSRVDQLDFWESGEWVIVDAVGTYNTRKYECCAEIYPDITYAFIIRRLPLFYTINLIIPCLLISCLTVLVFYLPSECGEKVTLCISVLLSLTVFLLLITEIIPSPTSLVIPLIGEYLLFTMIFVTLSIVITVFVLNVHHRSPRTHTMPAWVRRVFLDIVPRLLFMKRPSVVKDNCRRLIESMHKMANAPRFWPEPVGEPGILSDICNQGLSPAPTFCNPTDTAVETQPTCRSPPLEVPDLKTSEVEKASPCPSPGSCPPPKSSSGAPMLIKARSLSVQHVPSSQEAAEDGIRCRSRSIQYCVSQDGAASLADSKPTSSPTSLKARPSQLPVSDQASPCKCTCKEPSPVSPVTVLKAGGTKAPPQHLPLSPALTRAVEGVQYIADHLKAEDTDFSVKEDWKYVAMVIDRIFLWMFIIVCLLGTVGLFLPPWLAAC
Neuronal acetylcholine receptor; alpha4/beta2, sequence (P12390 whole entry): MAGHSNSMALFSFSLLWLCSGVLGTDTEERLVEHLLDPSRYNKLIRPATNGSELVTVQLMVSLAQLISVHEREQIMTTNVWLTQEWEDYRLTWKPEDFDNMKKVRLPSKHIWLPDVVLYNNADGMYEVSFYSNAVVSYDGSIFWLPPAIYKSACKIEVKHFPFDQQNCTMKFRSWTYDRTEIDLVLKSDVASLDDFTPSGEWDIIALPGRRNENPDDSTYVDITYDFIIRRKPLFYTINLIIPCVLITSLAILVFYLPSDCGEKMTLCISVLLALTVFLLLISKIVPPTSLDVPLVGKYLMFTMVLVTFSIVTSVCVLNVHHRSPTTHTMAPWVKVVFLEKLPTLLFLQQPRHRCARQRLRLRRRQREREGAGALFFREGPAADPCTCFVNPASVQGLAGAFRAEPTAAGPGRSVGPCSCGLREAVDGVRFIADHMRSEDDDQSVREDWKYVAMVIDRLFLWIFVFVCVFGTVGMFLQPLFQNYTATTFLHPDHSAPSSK

[2] = target: Neuronal acetylcholine receptor; alpha4/beta4 (Rattus norvegicus, UniProt P09483+P12392); test: Displacement of [3H]epibatidine from rat neuronal acetylcholine receptor subunit alpha4beta4 expressed in HEK293 cell membranes incubated for 4 hrs by scintillation counting method
Neuronal acetylcholine receptor; alpha4/beta4, sequence (P09483 whole entry): as the sequence (P09483 whole entry) above
Neuronal acetylcholine receptor; alpha4/beta4, sequence (P12392 whole entry): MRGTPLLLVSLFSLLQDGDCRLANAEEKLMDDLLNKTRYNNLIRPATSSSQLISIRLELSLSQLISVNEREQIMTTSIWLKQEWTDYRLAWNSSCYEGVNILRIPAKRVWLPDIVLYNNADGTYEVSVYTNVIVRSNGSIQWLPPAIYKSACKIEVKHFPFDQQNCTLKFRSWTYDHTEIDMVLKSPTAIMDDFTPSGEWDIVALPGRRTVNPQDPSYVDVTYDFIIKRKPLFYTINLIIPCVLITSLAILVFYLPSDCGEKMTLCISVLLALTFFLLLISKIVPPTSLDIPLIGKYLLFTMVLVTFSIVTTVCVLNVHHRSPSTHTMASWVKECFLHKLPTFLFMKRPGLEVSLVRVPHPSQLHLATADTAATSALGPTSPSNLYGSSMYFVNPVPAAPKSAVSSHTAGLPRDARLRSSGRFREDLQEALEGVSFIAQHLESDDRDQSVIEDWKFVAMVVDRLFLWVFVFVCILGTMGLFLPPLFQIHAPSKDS

[3] = target: T1, Neuronal acetylcholine receptor; alpha3/beta4 (Rattus norvegicus, UniProt P04757+P12392); test: Displacement of [3H]epibatidine from rat neuronal acetylcholine receptor subunit alpha3beta4 expressed in HEK293 cell membranes incubated for 4 hrs by scintillation counting method; conditions: for pKi: hek293
T1 sequence (P04757 whole entry): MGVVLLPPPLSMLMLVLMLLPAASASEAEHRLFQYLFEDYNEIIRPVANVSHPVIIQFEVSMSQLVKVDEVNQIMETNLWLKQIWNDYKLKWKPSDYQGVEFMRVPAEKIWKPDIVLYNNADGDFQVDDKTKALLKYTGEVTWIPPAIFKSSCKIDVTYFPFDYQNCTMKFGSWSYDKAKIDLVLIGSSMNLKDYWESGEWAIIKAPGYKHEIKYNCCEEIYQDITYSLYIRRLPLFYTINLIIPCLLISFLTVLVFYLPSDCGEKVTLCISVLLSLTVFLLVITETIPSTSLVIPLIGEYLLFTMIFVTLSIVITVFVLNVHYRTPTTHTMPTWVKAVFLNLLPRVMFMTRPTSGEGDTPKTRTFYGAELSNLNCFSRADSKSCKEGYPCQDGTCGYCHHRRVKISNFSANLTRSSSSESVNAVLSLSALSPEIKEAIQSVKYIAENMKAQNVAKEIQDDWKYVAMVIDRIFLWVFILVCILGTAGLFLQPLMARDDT
T1 sequence (P12392 whole entry): as the sequence (P12392 whole entry) above

[4] = target: Neuronal acetylcholine receptor subunit alpha-4/beta-2 (Mus musculus) (UniProt Q9ERK7+O70174); test: Agonist activity at mouse neuronal acetylcholine receptor subunit alpha4beta2 expressed in HEK293T cells at 300 uM by FMP assay; type: cell-based; conditions: HEK-293T
Neuronal acetylcholine receptor subunit alpha-4/beta-2 (Mus musculus), sequence (O70174 31-629 partner limits assumed): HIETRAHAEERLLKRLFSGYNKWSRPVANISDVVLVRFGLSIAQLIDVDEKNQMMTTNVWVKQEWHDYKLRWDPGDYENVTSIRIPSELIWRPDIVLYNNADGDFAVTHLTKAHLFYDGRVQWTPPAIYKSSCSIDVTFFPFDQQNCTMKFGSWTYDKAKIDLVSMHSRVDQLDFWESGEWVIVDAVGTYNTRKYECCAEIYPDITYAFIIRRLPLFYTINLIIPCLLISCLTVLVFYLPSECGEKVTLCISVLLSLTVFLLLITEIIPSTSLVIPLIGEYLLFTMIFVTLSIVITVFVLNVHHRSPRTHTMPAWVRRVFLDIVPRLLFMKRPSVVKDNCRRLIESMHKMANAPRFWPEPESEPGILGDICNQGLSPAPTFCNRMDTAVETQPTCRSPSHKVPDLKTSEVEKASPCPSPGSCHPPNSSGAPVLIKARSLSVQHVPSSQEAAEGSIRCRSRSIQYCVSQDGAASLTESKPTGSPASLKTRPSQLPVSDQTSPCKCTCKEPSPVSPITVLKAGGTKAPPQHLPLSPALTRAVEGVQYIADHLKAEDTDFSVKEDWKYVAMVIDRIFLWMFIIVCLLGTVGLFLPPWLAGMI
Neuronal acetylcholine receptor subunit alpha-4/beta-2 (Mus musculus), sequence (Q9ERK7 26-501 limits assumed): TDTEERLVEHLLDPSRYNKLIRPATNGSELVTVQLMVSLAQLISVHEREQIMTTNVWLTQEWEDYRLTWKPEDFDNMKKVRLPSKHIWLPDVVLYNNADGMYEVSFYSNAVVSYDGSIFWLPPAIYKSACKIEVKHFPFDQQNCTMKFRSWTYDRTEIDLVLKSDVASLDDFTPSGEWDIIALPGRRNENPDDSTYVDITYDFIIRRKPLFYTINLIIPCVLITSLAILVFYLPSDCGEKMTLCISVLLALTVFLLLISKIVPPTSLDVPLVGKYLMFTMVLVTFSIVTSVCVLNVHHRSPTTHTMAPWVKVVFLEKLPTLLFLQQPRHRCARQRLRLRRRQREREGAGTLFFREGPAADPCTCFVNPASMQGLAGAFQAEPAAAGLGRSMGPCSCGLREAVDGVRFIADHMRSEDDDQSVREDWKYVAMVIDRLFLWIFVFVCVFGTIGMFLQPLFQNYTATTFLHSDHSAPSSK

[5] = target: T1, Neuronal acetylcholine receptor; alpha3/beta4; test: Agonist activity at rat neuronal acetylcholine receptor subunit alpha3beta4 expressed in HEK293 cells at 1 mM by FMP assay; type: cell-based; conditions: for pEC50: hek293
[6] = target: T1, Neuronal acetylcholine receptor; alpha3/beta4; test: Agonist activity at rat neuronal acetylcholine receptor subunit alpha3beta4 expressed in HEK293 cells by FMP assay; type: cell-based
[7] = target: Neuronal acetylcholine receptor subunit alpha-4/beta-2 (Mus musculus, UniProt O70174+Q9ERK7); test: Agonist activity at mouse neuronal acetylcholine receptor subunit alpha4beta2 expressed in HEK293T cells by FMP assay; type: cell-based, HEK-293T
Neuronal acetylcholine receptor subunit alpha-4/beta-2, sequence (Q9ERK7 whole entry): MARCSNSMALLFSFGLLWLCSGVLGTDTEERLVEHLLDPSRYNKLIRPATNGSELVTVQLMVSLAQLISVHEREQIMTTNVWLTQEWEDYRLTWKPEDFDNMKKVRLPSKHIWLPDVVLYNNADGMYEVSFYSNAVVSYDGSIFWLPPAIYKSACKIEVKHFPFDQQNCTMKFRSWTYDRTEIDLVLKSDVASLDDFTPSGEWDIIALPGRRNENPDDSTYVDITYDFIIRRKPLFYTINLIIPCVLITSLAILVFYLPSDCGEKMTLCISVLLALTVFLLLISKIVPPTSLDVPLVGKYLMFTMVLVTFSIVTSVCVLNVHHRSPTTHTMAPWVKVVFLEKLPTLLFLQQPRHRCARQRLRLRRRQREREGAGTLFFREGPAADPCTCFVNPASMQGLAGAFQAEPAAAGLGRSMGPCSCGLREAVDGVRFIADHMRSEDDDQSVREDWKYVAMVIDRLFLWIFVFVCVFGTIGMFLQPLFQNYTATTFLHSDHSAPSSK
Neuronal acetylcholine receptor subunit alpha-4/beta-2, sequence (O70174 whole entry): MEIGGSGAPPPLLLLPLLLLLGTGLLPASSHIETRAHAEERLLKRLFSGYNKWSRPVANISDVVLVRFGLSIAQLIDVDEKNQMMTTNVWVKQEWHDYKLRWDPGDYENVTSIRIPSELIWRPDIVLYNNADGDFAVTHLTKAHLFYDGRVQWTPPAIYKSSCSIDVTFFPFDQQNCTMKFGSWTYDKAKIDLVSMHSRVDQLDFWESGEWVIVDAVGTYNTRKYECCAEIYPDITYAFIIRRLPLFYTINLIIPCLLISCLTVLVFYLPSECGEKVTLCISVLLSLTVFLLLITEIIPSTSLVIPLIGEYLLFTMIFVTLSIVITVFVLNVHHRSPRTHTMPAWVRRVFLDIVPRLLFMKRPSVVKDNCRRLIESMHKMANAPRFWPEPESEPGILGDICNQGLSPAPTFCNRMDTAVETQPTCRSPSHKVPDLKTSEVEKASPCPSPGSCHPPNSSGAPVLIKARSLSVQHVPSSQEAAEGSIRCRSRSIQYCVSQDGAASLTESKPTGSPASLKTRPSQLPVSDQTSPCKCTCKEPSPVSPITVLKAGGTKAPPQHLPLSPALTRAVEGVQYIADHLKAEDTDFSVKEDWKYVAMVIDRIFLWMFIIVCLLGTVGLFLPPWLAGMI

[8] = target: Neuronal acetylcholine receptor; alpha3/beta4 (Rattus norvegicus) (UniProt P04757+P12392); test: Agonist activity at rat neuronal acetylcholine receptor subunit alpha3beta4 expressed in HEK293 cells at 300 uM by FMP assay; type: cell-based

SMILES | Ki [1] [µM] | Ki ([2]; read-out: Ki) [µM] | Ki ([3]; read-out: Ki) [µM] | Activity [4] | further results
CN1CCN(C(=O)N(C)C)CC1 | 30 | 50 | 50 | – | –
CCNC(=O)N1CCN(C)CC1 | 10 | 100 | 100 | Active | EC50 [5]: > 1000 µM; pEC50 [5]: < 3
CNC(=S)N1CCN(C)CC1 | 19 | 500 | > 1000 | – | pKi [3]: < 3
CCNC(=S)N1CCN(C)CC1 | 5.8 | 300 | > 1000 | Active | pKi [3]: < 3; EC50 [6]: 100 µM
CN(C)C(=O)C1CCNCC1 | > 1000 | > 1000 | > 1000 | – | pKi ([1]; hek293): < 3; pKi ([2]; hek293): < 3; pKi [3]: < 3
CN1CCCN(C(=O)N(C)C)CC1 | 50 | 300 | 300 | – | –
CN(C)C(=O)N1CCCNCC1 | 11 | 50 | 300 | – | –
CC(CCOC(=O)N(C)C)N(C)C (configuration not stated) | – | – | – | – | Ki ([2]; read-out: pKi (converted)): 0.02 µM; Ki ([3]; read-out: pKi (converted)): 0.02 µM
CC(CCOC(=O)N1CCCC1)N(C)C (configuration not stated) | – | – | – | – | EC50 [7]: 7.1 µM
CN(C)C(=O)OC[C@H]1C[C@H]1N (racemic) | 13 | 100 | 300 | – | –
CN(C)C(=O)OC[C@H]1C[C@@H]1N(C)C (racemic) | 100 | 1000 | 1000 | – | –
CNC(=O)OC[C@H]1C[C@@H]1N(C)C.O=C(O)C(=O)O (racemic) | 300 | 1000 | > 1000 | – | pKi [3]: < 3
CN(C)C(=O)OC[C@H]1C[C@H]1N(C)C (racemic) | 1.5 | 14 | 14 | Active | Activity [8]: Active
CNC(=O)OC[C@H]1C[C@H]1N(C)C (racemic) | 2.1 | 30 | 50 | Active | Activity [8]: Active
CN(C)C(=O)N1CCC(N(C)C)C1 (racemic) | 6.4 | 2.3 | 6.4 | – | EC50 [7]: 10 µM; EC50 [6]: 32 µM
CCNC(=O)N1CCC(N(C)C)C1 (racemic) | 5.7 | 30 | 30 | Active | EC50 [6]: 100 µM
CNC(=S)N1CCC(N(C)C)C1 (racemic) | 2.3 | 100 | 300 | Active | EC50 [5]: > 1000 µM; pEC50 [5]: < 3
CCNC(=S)N1CCC(N(C)C)C1 (racemic) | 1.2 | 300 | > 1000 | Active | pKi [3]: < 3; EC50 [5]: > 1000 µM; pEC50 [5]: < 3
